Reference: paper PMC3038857, “Using Nuclear Receptor Activity to Stratify Hepatocarcinogens” (PLoS ONE, 2011)
Read-outs that look alike come from different tables or passages of the source.

Legend:
PXR (NR1I2) [1] = target: T1, PXR (NR1I2) (Homo sapiens, UniProt O75469); test: ATG_PXRE_CIS: Factorial reporter gene assay (HepG2); assay type: cell-based; design: endogenous in cells; host or cells: HepG2
T1 sequence (O75469 1-434): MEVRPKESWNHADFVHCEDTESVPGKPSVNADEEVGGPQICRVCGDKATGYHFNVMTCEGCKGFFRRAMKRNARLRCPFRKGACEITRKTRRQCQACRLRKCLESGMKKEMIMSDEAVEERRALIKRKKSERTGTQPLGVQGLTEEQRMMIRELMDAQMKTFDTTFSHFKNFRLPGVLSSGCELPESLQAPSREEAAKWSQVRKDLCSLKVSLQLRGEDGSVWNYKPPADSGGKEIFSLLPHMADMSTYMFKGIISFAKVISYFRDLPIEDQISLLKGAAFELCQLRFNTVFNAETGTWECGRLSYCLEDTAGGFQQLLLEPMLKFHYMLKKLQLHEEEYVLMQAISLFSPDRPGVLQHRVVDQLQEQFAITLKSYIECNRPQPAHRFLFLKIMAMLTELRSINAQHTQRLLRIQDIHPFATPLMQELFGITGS
Summary of the method: (§1)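 Seven test concentrations were run, beginning at the MTC and diluted three-fold serially. PXRE activity came from cis reporters, a 48-site MRTU library in HepG2 hepatoma cells. ERRg, FXR and PPARg activity came from trans one-hybrid reporters, an additional 25-member MRTU set.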

[2] = target: T2, AHR (aryl hydrocarbon receptor) (Homo sapiens, UniProt P35869); test: ATG_Ahr_CIS: Factorial reporter gene assay (multiplexed transcription reporter, HepG2); assay type: cell-based
T2 construct: endogenous in cells; host or cells: HepG2
T2 sequence (P35869 11-848): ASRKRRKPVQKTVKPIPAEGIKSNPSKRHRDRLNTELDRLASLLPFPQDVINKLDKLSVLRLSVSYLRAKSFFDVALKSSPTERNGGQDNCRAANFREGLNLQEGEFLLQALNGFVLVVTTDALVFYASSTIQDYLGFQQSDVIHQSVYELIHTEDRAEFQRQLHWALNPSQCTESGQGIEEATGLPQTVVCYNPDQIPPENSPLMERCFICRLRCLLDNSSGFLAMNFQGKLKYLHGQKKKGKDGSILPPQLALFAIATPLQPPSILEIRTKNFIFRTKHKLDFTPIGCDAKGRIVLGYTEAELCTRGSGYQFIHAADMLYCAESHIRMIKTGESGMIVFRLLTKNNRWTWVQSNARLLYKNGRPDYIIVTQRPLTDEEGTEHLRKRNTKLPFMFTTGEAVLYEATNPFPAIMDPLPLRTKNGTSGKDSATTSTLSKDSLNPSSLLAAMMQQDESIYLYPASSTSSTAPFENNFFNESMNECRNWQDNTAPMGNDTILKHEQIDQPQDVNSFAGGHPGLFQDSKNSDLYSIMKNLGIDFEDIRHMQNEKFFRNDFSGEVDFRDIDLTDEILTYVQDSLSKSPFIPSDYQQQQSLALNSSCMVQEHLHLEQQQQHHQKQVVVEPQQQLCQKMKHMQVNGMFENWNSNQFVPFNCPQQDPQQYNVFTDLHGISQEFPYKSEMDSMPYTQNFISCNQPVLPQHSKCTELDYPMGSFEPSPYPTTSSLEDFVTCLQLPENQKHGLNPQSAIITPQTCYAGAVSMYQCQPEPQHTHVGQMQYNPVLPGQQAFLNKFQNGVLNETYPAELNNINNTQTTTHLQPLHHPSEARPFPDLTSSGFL
Experimental: A multiple reporter transcription unit (MRTU) library consisting of 48 transcription factor binding sites was transfected into the HepG2 human liver hepatoma cell line. In addition to the cis-acting reporter genes (CIS), a modification of the approach was used to generate a trans-system (TRANS) with a mammalian one-hybrid assay consisting of an additional 25 MRTU library reporting the activity of nuclear receptor super-family members. […] These assays were performed by Attagene Inc. (Morrisville NC) under contract to EPA.
In addition to the cis-acting reporter genes (CIS), a modification of the approach was used to generate a trans-system (TRANS) with a mammalian one-hybrid assay consisting of an additional 25 MRTU library reporting the activity of nuclear receptor super-family members. […] Chemicals were then tested in the CIS and TRANS assays at seven concentrations starting at the MTC and followed by three-fold serial dilutions. These assays were performed by Attagene Inc. (Morrisville NC) under contract to EPA. Detailed description of the methods, data and analysis methods for this dataset will be presented in a separate publication.

CYP1A2 = test: CLZD_CYP1A2: Change in expression of CYP1A2 (primary human hepatocytes); assay type: cell-based; details: 24 hr
Summary of the method: (§2)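 Five-point concentration series (0.004-40 µM) applied to primary human hepatocytes; 6/24/48 hr timepoints; transcript quantified by multiplexed nuclease protection.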

[3] = target: T3, PPARG (peroxisome proliferator-activated receptor gamma) (Homo sapiens, UniProt P37231); test: ATG_PPARg_TRANS: Factorial reporter gene assay (HepG2); assay type: cell-based; details: HepG2 reporter
T3 construct: expressed in transfected cells; host or cells: HepG2
T3 sequence (P37231 1-505): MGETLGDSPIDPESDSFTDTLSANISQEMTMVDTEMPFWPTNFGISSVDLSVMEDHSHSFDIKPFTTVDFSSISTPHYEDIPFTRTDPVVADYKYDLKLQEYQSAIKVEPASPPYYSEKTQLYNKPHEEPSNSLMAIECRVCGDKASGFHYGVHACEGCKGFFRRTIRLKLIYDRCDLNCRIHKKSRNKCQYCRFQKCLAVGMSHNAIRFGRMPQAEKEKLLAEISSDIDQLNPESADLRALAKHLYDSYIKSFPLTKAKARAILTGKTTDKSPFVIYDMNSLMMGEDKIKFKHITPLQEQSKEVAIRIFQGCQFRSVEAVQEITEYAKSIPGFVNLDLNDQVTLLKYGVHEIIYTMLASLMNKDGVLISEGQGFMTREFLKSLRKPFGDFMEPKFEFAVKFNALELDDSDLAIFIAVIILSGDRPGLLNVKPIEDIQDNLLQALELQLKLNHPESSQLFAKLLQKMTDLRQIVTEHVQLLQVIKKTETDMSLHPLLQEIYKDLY
Summary of the method: as §1

Rat Liver [4] = details: ref ToxRefDB, cited from earlier work
Rat Liver [5] = details: ref ToxRefDB, cited from earlier work; remark: listed apart in the source
Mouse Liver [6] = details: chronic study, mouse liver; ref ToxRefDB; cited from earlier work
Mouse Liver [7] = details: ref ToxRefDB, cited from earlier work
PXR Human (NR1I2) = target: T4, PXR Human (NR1I2) (Homo sapiens, UniProt O75469); test: NCGC_PXR_Agonist_human: GAL4 BLAM Reporter gene assay: PXR Human; assay type: cell-based; details: agonist mode
T4 sequence (O75469 146-434 limits assumed): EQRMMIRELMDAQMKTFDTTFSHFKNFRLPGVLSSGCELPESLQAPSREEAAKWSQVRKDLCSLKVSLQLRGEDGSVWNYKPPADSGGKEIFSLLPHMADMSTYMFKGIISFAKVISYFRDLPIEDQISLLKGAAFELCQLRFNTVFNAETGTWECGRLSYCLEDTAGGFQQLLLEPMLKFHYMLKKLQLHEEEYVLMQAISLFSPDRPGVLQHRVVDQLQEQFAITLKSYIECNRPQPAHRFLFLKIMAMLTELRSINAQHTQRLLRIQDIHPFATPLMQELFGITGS
Experimental: These assays measure binding constants and enzyme inhibition values for nuclear receptors. The targets include [drawing 67] , [drawing 68] , [drawing 69] , [drawing 70] , [drawing 71] , [drawing 72] , [drawing 73] , [drawing 74] , [drawing 75] and [drawing 76] . Each of the nuclear receptor targets was measured in agonist mode. Assays were run at the NIH Chemical Genomics Center (Rockville, MD).
Cell-based HTS Assays: These assays measuring binding constants and enzyme inhibition values for nuclear receptors. The targets include AR, ER, FXR, LXR, PPARα, PPARδ, PPARγ, RXRα, RXRβ and PXR. Each of the nuclear receptor targets was measured in both agonist and antagonist mode, but the antagonist data is still undergoing analysis due to possible interference between cytotoxicity and assay activity, so antagonist mode data were not used in the present analysis. Assays were run at the NIH Chemical Genomics Center (Rockville, MD) as part of the Tox21 collaboration. […] The R^2 was required to be ≥0.5. Values where only the highest concentration exceeded 50% activity were excluded to eliminate weak or false positives. Detailed description of the methods, data and analysis methods for this dataset will be presented in a separate publication.

Rat Liver [8] = details: ref ToxRefDB, cited from earlier work; remark: listed apart in the source
Mouse Liver [9] = details: chronic study, mouse liver; ref ToxRefDB; cited from earlier work; remark: listed apart in the source
CYP3A4 = test: CLZD_CYP3A4: Change in expression of CYP3A4 (primary human hepatocytes); assay type: cell-based; details: 24 hr
Summary of the method: as §2

PXR (NR1I2) [10] = target: T1, PXR (NR1I2); test: ATG_PXR_TRANS: Factorial reporter gene assay (HepG2); assay type: cell-based; design: endogenous in cells; host or cells: HepG2
Summary of the method: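 HepG2 cells transfected with multiplexed reporter libraries: cis-acting binding-site reporters (CIS) and a one-hybrid nuclear-receptor trans system (TRANS). Chemicals tested at seven concentrations, starting at the maximum tolerated concentration with three-fold serial dilutions.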

CYP2B6 = test: CLZD_CYP2B6: Change in expression of CYP2B6 (primary human hepatocytes); assay type: cell-based; details: 24 hr
Summary of the method: as §2

PXR (NR1I2) [11] = target: T1, PXR (NR1I2); test: NVS_NR_hPXR: Human PXR Fluormone PXR (SXR) green (cell-free HTS); assay type: binding
Excerpt: These are a collection of biochemical assays measuring binding constants and enzyme inhibition values. Chemicals were initially screened at a single concentration in duplicate wells at a concentration of 10 [drawing 63] M for cytochrome P-450 assays and 25 [drawing 64] M for all others. […] These assays were run by Caliper Life Sciences (Hanover, MD) under contract to EPA. Short assay descriptions are available at: http://www.caliperls.com/products/contract-research/in-vitro/.
Cell-free HTS Assays: A collection of biochemical assays measuring binding constants and enzyme inhibition values. […] These assays were run by Caliper Life Sciences (Hanover, MD) under contract to EPA. Short assay descriptions are available at http://www.caliperls.com/products/contract-research/in-vitro/. Values for all endpoints were imported into GeneData Screener (Basel, Switzerland) and normalised to solvent controls from the same plate as the tested compounds and expressed as percent of neutral control. Concentration-response curves were fit in GeneData Screener (Basel, Switzerland) Condeseo module using the Hill equation and AC50 values were determined. […] Detailed description of the methods, data and analysis methods for this dataset are described in a separate publication.

## O=c1n(Cl)c(=O)n(Cl)c(=O)n1Cl [r288]
PXR (NR1I2) [1]; HepG2 reporter
  ATG_PXRE_CIS: 4.337
[2]; HepG2 reporter
  ATG_Ahr_CIS: 4.509
CYP1A2
  CLZD_CYP1A2_24: 5.117

## CCOC(=O)COc1cc(-c2nn(C)c(OC(F)F)c2Cl)c(F)cc1Cl [r271]
[3]
  ATG_PPARg_TRANS: 4.328
PXR (NR1I2) [1]; HepG2 reporter
  ATG_PXRE_CIS: 4.26
Rat Liver [4]; chronic study, rat liver
  CHR_Rat_Liver_2_PreneoplasticLesion: 6
Rat Liver [5]; chronic study, rat liver
  CHR_Rat_Liver_1_AnyLesion: 6
Mouse Liver [6]
  CHR_Mouse_Liver_3_NeoplasticLesion: 6
Mouse Liver [7]; chronic study, mouse liver
  CHR_Mouse_Liver_1_AnyLesion: 6
PXR Human (NR1I2)
  NCGC_PXR_Agonist_human: 4.477
Rat Liver [8]; chronic study, rat liver
  CHR_Rat_Liver_3_NeoplasticLesion: 0
Mouse Liver [9]
  CHR_Mouse_Liver_2_PreneoplasticLesion: 6
CYP3A4
  CLZD_CYP3A4_24: 5.138
PXR (NR1I2) [10]; HepG2 reporter
  ATG_PXR_TRANS: 4.538
CYP2B6
  CLZD_CYP2B6_24: 4.918

## COCC(=O)N(c1c(C)cccc1C)C(C)C(=O)OC (centres unmarked) [row 196]
PXR (NR1I2) [1]; HepG2
  ATG_PXRE_CIS: 4.796
Rat Liver [4]; chronic rat study, liver
  CHR_Rat_Liver_2_PreneoplasticLesion: 0
[2]; HepG2
  ATG_Ahr_CIS: 4.149
Rat Liver [5]; chronic rat study, liver
  CHR_Rat_Liver_1_AnyLesion: 6
Mouse Liver [7]; chronic mouse study, liver
  CHR_Mouse_Liver_1_AnyLesion: 6
Rat Liver [8]; chronic rat study, liver
  CHR_Rat_Liver_3_NeoplasticLesion: 0
CYP3A4
  CLZD_CYP3A4_24: 4.985
PXR (NR1I2) [10]; HepG2
  ATG_PXR_TRANS: 4.854
CYP2B6
  CLZD_CYP2B6_24: 5.11

## CCCCOC(=O)c1ccccc1C(=O)O [row 215]
PXR (NR1I2) [11]
  NVS_NR_hPXR: 4.801
[2]; HepG2
  ATG_Ahr_CIS: 4.119

## Nc1c(Cl)c(Cl)nc(C(=O)O)c1Cl [r245]
PXR (NR1I2) [1]; HepG2
  ATG_PXRE_CIS: 4.26
Rat Liver [4]; rat, chronic study
  CHR_Rat_Liver_2_PreneoplasticLesion: 0
[2]; HepG2
  ATG_Ahr_CIS: 4.523
Rat Liver [5]; rat, chronic study
  CHR_Rat_Liver_1_AnyLesion: 6
Rat Liver [8]; rat, chronic study
  CHR_Rat_Liver_3_NeoplasticLesion: 0
CYP1A2
  CLZD_CYP1A2_24: 4.952
